Where a name gives a salt, the structure may show the parent alone.
System: mice
Assay: Neuropharmacological Assay (SmartCube): automated behavioral signature of compound-treated mice compared with a database of reference drug classes
Assay type: in vivo
Conditions: for AD / AG / AN / CE / HL / MS / PS / SH / AP / AX / UK: SmartCube class probability, 3.0 mg/kg i.p., 15 min before test; for MED / minimal effective dose: minimal effective dose: dose having 45% or more total activity in SmartCube, i.p., if only one dose tested, that dose is shown; for minimal effective dose: Mus musculus, ip, read-out: MED
Procedure, shortened: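 Probabilities of matching each neuropharmacological class (e.g. anxiolytic, antidepressant) come from algorithmic analysis of digitally recorded behaviour, reported for 3.0 mg/kg. Compounds were given intraperitoneally in a Pharmasolve/PEG/propylene glycol vehicle 15 min pre-test. Minimal effective dose is the lowest dose reaching 45% or more total activity.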

| Compound | AD | AG | AN | CE | HL | MS | PS | SH | AP (hydrochloride, 3 mg/kg) | AX (hydrochloride, 3 mg/kg) | UK (hydrochloride, 3 mg/kg) | MED (hydrochloride) [mpk] | UK | AP | AX | further results |
| --- | --- | --- | --- | --- | --- | --- | --- | --- | --- | --- | --- | --- | --- | --- | --- | --- |
| CNC1CCCc2cscc2C1 (single isomer, unassigned) [Compound 169, N-methyl-5,6,7,8-tetrahydro-4H-cyclohepta[c]thiophen-5-amine hydrochloride] | ND (^ <4%) | ND (^ <4%) | ND (^ <4%) | ND (^ <4%) | ND (^ <4%) | ND (^ <4%) | ND (^ <4%) | ND (^ <4%) | ND (^ <4%) | ND (^ <4%) | ++ (≥24%) | 3 |  |  |  |  |
| CNC1CCCc2cscc2C1 (single isomer, unassigned) [Compound 170, N-methyl-5,6,7,8-tetrahydro-4H-cyclohepta[c]thiophen-5-amine hydrochloride] | ND (^ <4%) | ND (^ <4%) | ND (^ <4%) | ND (^ <4%) | ND (^ <4%) | ND (^ <4%) | ND (^ <4%) | ND (^ <4%) | +++ (≥49%) | ++ (≥24%) | ND (^ <4%) | 1 |  |  |  |  |
| CCNC1CCc2cscc2C1 (single isomer, unassigned) [Compound 171, N-ethyl-4,5,6,7-tetrahydro-2-benzothiophen-5-amine hydrochloride] | ND (^ <4%) | ND (^ <4%) | ND (^ <4%) | ND (^ <4%) | ND (^ <4%) | ND (^ <4%) | ND (^ <4%) | ND (^ <4%) | ++++ (≥74%) | ND (^ <4%) |  | 3 | ND (^ <4%) |  |  |  |
| CCNC1CCc2cscc2C1 (single isomer, unassigned) [Compound 172, N-ethyl-4,5,6,7-tetrahydro-2-benzothiophen-5-amine hydrochloride] | ND (^ <4%) | ND (^ <4%) | ND (^ <4%) | ND (^ <4%) | ND (^ <4%) | ND (^ <4%) | ND (^ <4%) | ND (^ <4%) | ND (^ <4%) | ++++ (≥74%) |  | 1 | ND (^ <4%) |  |  |  |
| CNC1CCc2scc(C#N)c2C1 (single isomer, unassigned) [Compound 174, 5-(methylamino)-4,5,6,7-tetrahydrobenzothiophene-3-carbonitrile hydrochloride] | ND (^ <4%) | ND (^ <4%) | ND (^ <4%) | ND (^ <4%) | ND (^ <4%) | ND (^ <4%) | ND (^ <4%) | + (≥4%) |  | ND (^ <4%) |  | 1 | ND (^ <4%) | ND (^ <4%) |  |  |
| CNC1CCc2scc(C#N)c2C1 (single isomer, unassigned) [Compound 175, 5-(methylamino)-4,5,6,7-tetrahydrobenzothiophene-3-carbonitrile hydrochloride] | ND (^ <4%) | ND (^ <4%) | ND (^ <4%) | ND (^ <4%) | ND (^ <4%) | ND (^ <4%) | ND (^ <4%) | + (≥4%) |  | +++ (≥49%) |  | 3 | ND (^ <4%) | ND (^ <4%) |  |  |
| N#Cc1csc2c1CC(N)CC2 (single isomer, unassigned) [Compound 176, 5-amino-4,5,6,7-tetrahydrobenzo[b]thiophene-3-carbonitrile hydrochloride] | ND (^ <4%) | ND (^ <4%) | ND (^ <4%) | ND (^ <4%) | ND (^ <4%) | ND (^ <4%) | ND (^ <4%) | ND (^ <4%) |  |  | ND (^ <4%) |  |  | ND (^ <4%) | ND (^ <4%) | minimal effective dose: > 3 mg/kg |
| N#Cc1csc2c1CC(N)CC2 (single isomer, unassigned) [Compound 177, 5-amino-4,5,6,7-tetrahydrobenzo[b]thiophene-3-carbonitrile hydrochloride] | ND (^ <4%) | ND (^ <4%) | ND (^ <4%) | ND (^ <4%) | ND (^ <4%) | ND (^ <4%) | ND (^ <4%) | ND (^ <4%) |  |  | ++++ (≥74%) | 3 |  | ND (^ <4%) | ND (^ <4%) |  |
| CNC1(C)CCc2sccc2C1 (single isomer, unassigned) [Compound 178, N, 5-dimethyl-6,7-dihydro-4H-benzothiophen-5-amine hydrochloride] |  | ND (^ <4%) |  | ND (^ <4%) | ND (^ <4%) | ND (^ <4%) |  | ND (^ <4%) |  |  |  | 1 | ND (^ <4%) | ND (^ <4%) | ND (^ <4%) | AD (hydrochloride, 3 mg/kg): + (≥4%); AN (hydrochloride, 3 mg/kg): ND (^ <4%); PS (hydrochloride, 3 mg/kg): ++++ (≥74%) |
| CNC1(C)CCc2sccc2C1 (single isomer, unassigned) [Compound 179, N, 5-dimethyl-6,7-dihydro-4H-benzothiophen-5-amine hydrochloride] |  | ND (^ <4%) |  | ND (^ <4%) | ND (^ <4%) | ND (^ <4%) |  | ND (^ <4%) |  |  |  | 3 | ND (^ <4%) | ND (^ <4%) | ND (^ <4%) | AD (hydrochloride, 3 mg/kg): +++ (≥49%); AN (hydrochloride, 3 mg/kg): + (≥4%); PS (hydrochloride, 3 mg/kg): + (≥4%) |
| CNC1CCc2sc(C3CC3)cc2C1 (single isomer, unassigned) [Compound 183, 2-cyclopropyl-N-methyl-4,5,6,7-tetrahydrobenzothiophen-5-amine hydrochloride] | ND (^ <4%) | ND (^ <4%) | ND (^ <4%) | ND (^ <4%) | ND (^ <4%) | ND (^ <4%) | ND (^ <4%) | ND (^ <4%) |  |  |  |  | ++ (≥24%) | ND (^ <4%) | ND (^ <4%) | minimal effective dose: 3 mg/kg |
| CNC1CCc2sc(C3CC3)cc2C1 (single isomer, unassigned) [Compound 184, 2-cyclopropyl-N-methyl-4,5,6,7-tetrahydrobenzothiophen-5-amine hydrochloride] | ND (^ <4%) | ND (^ <4%) | ND (^ <4%) | ND (^ <4%) | ND (^ <4%) | ND (^ <4%) | ND (^ <4%) | ND (^ <4%) |  |  |  | >3 | ++ (≥24%) | ND (^ <4%) | ND (^ <4%) |  |
| NC1CCc2scc(F)c2C1 (single isomer, unassigned) [Compound 191, 3-fluoro-4,5,6,7-tetrahydrobenzothiophen-5-amine hydrochloride] |  |  |  |  | ND (^ <4%) | ND (^ <4%) |  | ND (^ <4%) | + (≥4%) |  | ND (^ <4%) | 1 |  |  | ND (^ <4%) | AD (hydrochloride, 3 mg/kg): ++ (≥24%); AG (hydrochloride, 3 mg/kg): + (≥4%); AN (hydrochloride, 3 mg/kg): + (≥4%); CE (hydrochloride, 3 mg/kg): + (≥4%); PS (hydrochloride, 3 mg/kg): + (≥4%) |
| NC1CCc2scc(F)c2C1 (single isomer, unassigned) [Compound 192, 3-fluoro-4,5,6,7-tetrahydrobenzothiophen-5-amine hydrochloride] |  |  |  |  | ND (^ <4%) | ND (^ <4%) |  | ND (^ <4%) | ND (^ <4%) |  | +++ (≥49%) | 3 |  |  | ND (^ <4%) | AD (hydrochloride, 3 mg/kg): ND (^ <4%); AG (hydrochloride, 3 mg/kg): ND (^ <4%); AN (hydrochloride, 3 mg/kg): ND (^ <4%); CE (hydrochloride, 3 mg/kg): ND (^ <4%); PS (hydrochloride, 3 mg/kg): ND (^ <4%) |
| CNC1CCc2scc(C(F)(F)F)c2C1.Cl (single isomer, unassigned) [Compound 194, N-methyl-3-(trifluoromethyl)-4,5,6,7-tetrahydrobenzothiophen-5-amine hydrochloride] | ND (^ <4%) | ND (^ <4%) | ND (^ <4%) | ND (^ <4%) | ND (^ <4%) | ND (^ <4%) | ND (^ <4%) | ND (^ <4%) | ++++ (≥74%) |  | ND (^ <4%) |  |  |  | ND (^ <4%) | minimal effective dose: 3 mg/kg |
| CNC1CCc2scc(C(F)(F)F)c2C1.Cl (single isomer, unassigned) [Compound 195, N-methyl-3-(trifluoromethyl)-4,5,6,7-tetrahydrobenzothiophen-5-amine hydrochloride] | ND (^ <4%) | ND (^ <4%) | ND (^ <4%) | ND (^ <4%) | ND (^ <4%) | ND (^ <4%) | ND (^ <4%) | ND (^ <4%) | ND (^ <4%) |  | + (≥4%) | >3 |  |  | ND (^ <4%) |  |
